Test results: patent publication US12636271B2, “Combination comprising N-acetyl-L-cysteine and its use” (IASOMAI AB, priority 2011, dated 2026)

What was measured:
[1] = tested on: patients suffering from sporadic insomnia; assay: Sporadic insomnia trial, rated intensity before and after treatment; format: in vivo, human; conditions: group of 24 patients
[2] = tested on: patients suffering from fatigue; assay: Fatigue trial, rated intensity before and after treatment; format: in vivo, human; conditions: group of 20 patients
Description: In a method, conducted in a similar manner to that described in the previous Examples 6 and 7, and in accordance with embodiments of this disclosure a medical product comprising NAC, SeMet and Mel in accordance with embodiments was given to a plurality of groups of patients in the treatment of fatigue. The method of treating fatigue comprises administering to a patient in need thereof, a medical product consisting of one or more excipients and active agents consisting of (i) N-acetyl-L-cysteine; (ii) selenium in the form of selenomethionine; and (iii) melatonin and/or physiologically acceptable salts thereof. Fatigue may be related and due to anxiety, and/or to sporadic insomnia or have other independent causes. Fatigue is defined as a state of tiredness that remain despite rest or sleep, and that tend to impair cognitive and/or physical ability and performance.
In a trial the NAC, SeMet and Mel medical product, herein also called NAC-factor 3, was administered to a group of patients in a set-up to compare the effect of placebo, NAC and the medical product consisting of NAC, SeMet and Mel in treatment of fatigue.
(§1) The patients rated their experienced intensity of fatigue before and after being exposed to medication with one of placebo, NAC and the medical product consisting of NAC, SeMet and Mel (in short NACSeMel), respectively. The subjective intensity was rated by the patients using a 5 graded verbal rating scale ranging from None/Ignorable=0, Slight=1, Moderate=2, Great=3, Excruciating=4, where the corresponding numbers 0-4 are used to illustrate the responses in accompanying graphs.
(§2) In studying the results of the rating, the change in rating that the group delivered was expressed as a measure of the group's relative position RP in order to assess whether there was a systematic change in position on the rating scale. The relative position, i.e. the change in rating is negative if the rating indicates less intensity after exposure to treatment compared to before treatment, and positive if the rating indicates higher intensity after exposure to treatment. A range of values for the relative position RP was calculated for a 95% confidence interval CI.

[3] = tested on: patients suffering from varying kinds of anxiety; assay: Anxiety trial, rated pain intensity before and after treatment; format: in vivo, human; conditions: n = 20
Description: In a method in accordance with embodiments of this disclosure a medical product comprising NAC, SeMet and Mel in accordance with embodiments was given to a plurality of groups of patients in the treatment of anxiety. The method of treating an anxiety disorder comprises administering to a patient in need thereof, a medical product consisting of one or more excipients and active agents consisting of (i) N-acetyl-L-cysteine; (ii) selenium in the form of selenomethionine; and (iii) melatonin and/or physiologically acceptable salts thereof.
(§3) In a trial the NAC, SeMet and Mel medical product, herein also called NAC-factor 3, was administered to the groups of patients in a set-up to compare the anxiolytic effect of placebo, NAC and the medical product consisting of NAC, SeMet and Mel in anxiolysis. The groups of patients were ordered according to the following different causes of anxiety: Sporadic anxiety (i.e. healthy patients) (SA), Social phobia (SP), Agoraphobia (AP), Panic disorder (PD), Generalized anxiety disorder (GAD), Obsessive-compulsive disorders (OCD), and Posttraumatic stress disorder (PTSD).
as §1, with “of pain from the anxiety” for “of fatigue”, “subjective pain-intensity” for “subjective intensity”
as §2, with “less pain” for “less”, “higher pain” for “higher”

K562 cells = assay: Antioxidant effect against menadione oxidative stimulus, CM-H2DCFDA fluorescence; format: cell-based, human; conditions: 0.2 mM menadione, 0.4 mM NAC, 0.2 mM SeMet, 2 mM Mel (FIG. 4)
Protocol: The human lymphoblastoid HL60 and the proerythoblastoid K562 cell lines were used, grown at 37° C. in RPMI 1640 medium (Invitrogen, Gibco, Milano, Italy), supplemented with 10% fetal bovine serum, 5 μg/ml penicillin, 5 μg/ml streptomycin, 2 mM glutamine, and routinely subcultured three times a week. Cells were treated either with menadione alone (control), with NAC only, with NAC+Se-methionine (SeMet), with NAC+Mel, or with NAC+SeMet+Mel. In cases of SeMet supplementation, such supplementation was performed two days before experiments, by using a SeMet solution in buffer (concentrations as indicated in description of FIGS. 4-7). […]
The effect of NAC, Mel, SeMet and of a combination of these substances in protecting the cells against an oxidative stimulus was detected by using the fluorescent probe 5-(and-6)-chloromethyl-2′,7′-dichlorodihydrofluorescein diacetate, acetyl ester (CM-H2DCFDA) (Invitrogen, Molecular Probes). […] The increase in hydroperoxides (mainly H2O2) within the cell is thus monitored by increase in fluorescence. […]
Cells were counted, and care was taken to keep the ratio between cells and the fluorescent probe constant. […] Two μ1 of a solution of CM-H2DCFDA in DMSO were then added and the fluorescence intensity read versus time. […] During intensity readings, samples were subjected to continuous mild stirring. […]

HL60 cells = assay: as above; format: cell-based, human; conditions: concentrations as in FIGS. 5-7
Protocol: The human lymphoblastoid HL60 and the proerythoblastoid K562 cell lines were used, grown at 37° C. in RPMI 1640 medium (Invitrogen, Gibco, Milano, Italy), supplemented with 10% fetal bovine serum, 5 μg/ml penicillin, 5 μg/ml streptomycin, 2 mM glutamine, and routinely subcultured three times a week. Cells were treated either with menadione alone (control), with NAC only, with NAC+Se-methionine (SeMet), with NAC+Mel, or with NAC+SeMet+Mel. In cases of SeMet supplementation, such supplementation was performed two days before experiments, by using a SeMet solution in buffer (concentrations as indicated in description of FIGS. 4-7). In cases of Mel supplementation, such supplementation was performed 20 hours before experiments, by using a solution in ethanol (concentrations as indicated in description of FIGS. 4-7). Ethanol concentration in growth medium was <1.3% and controls only with this solvent were also grown in parallel.
The effect of NAC, Mel, SeMet and of a combination of these substances in protecting the cells against an oxidative stimulus was detected by using the fluorescent probe 5-(and-6)-chloromethyl-2′,7′-dichlorodihydrofluorescein diacetate, acetyl ester (CM-H2DCFDA) (Invitrogen, Molecular Probes). CM-H2DCFDA is a cell-permeant indicator for reactive oxygen species that is not fluorescent until removal of its acetate groups by intracellular esterases, and oxidation within the cell. The increase in hydroperoxides (mainly H2O2) within the cell is thus monitored by increase in fluorescence. […]
Cells were counted, and care was taken to keep the ratio between cells and the fluorescent probe constant. […] Two μ1 of a solution of CM-H2DCFDA in DMSO were then added and the fluorescence intensity read versus time. After the first 200 sec of reading, a proper aliquot of NAC solution in phosphate buffer (concentrations as indicated in description of FIGS. 4-7), and 10 μl of a 0.1 M solution of menadione in ethanol were added, and the fluorescence intensity reading continued. During intensity readings, samples were subjected to continuous mild stirring. […]

[4] = tested on: patients suffering from obsessive compulsive disorder; assay: Anxiety trial, rated pain intensity before and after treatment; format: in vivo, human; conditions: n = 7
Protocol: as §3
as §1, with “of pain from the anxiety” for “of fatigue”, “subjective pain-intensity” for “subjective intensity”
as §2, with “less pain” for “less”, “higher pain” for “higher”
(§4) The corresponding treatment design as described above was used with patients rating the pain intensity for specific causes of anxiety, viz. Recurrent sporadic social anxiety, Social Phobia/Agoraphobia, Panic disorder, Generalized anxiety disorder, Obsessive compulsive disorder and Posttraumatic stress disorder. The results are presented in the following Table 3 and in FIG. 11-FIG. 16.

[5] = tested on: patients suffering from recurrent sporadic social anxiety; assay: as above; format: in vivo, human; conditions: n = 12
Protocol: as §3
as §1, with “of pain from the anxiety” for “of fatigue”, “subjective pain-intensity” for “subjective intensity”
as §2, with “less pain” for “less”, “higher pain” for “higher”
as §4

[6] = tested on: patients suffering from panic disorder; assay: as above; format: in vivo, human; conditions: n = 7
Protocol: as §3
as §1, with “of pain from the anxiety” for “of fatigue”, “subjective pain-intensity” for “subjective intensity”
as §2, with “less pain” for “less”, “higher pain” for “higher”
as §4

[7] = tested on: patients suffering from social phobia/agoraphobia; assay: as above; format: in vivo, human; conditions: n = 6
Protocol: as §3
as §1, with “of pain from the anxiety” for “of fatigue”, “subjective pain-intensity” for “subjective intensity”
as §2, with “less pain” for “less”, “higher pain” for “higher”
as §4

[8] = tested on: patients suffering from posttraumatic stress disorder; assay: as above; format: in vivo, human; conditions: n = 5
Protocol: as §3
as §1, with “of pain from the anxiety” for “of fatigue”, “subjective pain-intensity” for “subjective intensity”
as §2, with “less pain” for “less”, “higher pain” for “higher”
as §4

[9] = tested on: patients suffering from generalized anxiety disorder; assay: as above; format: in vivo, human; conditions: n = 8
Protocol: as §3
as §1, with “of pain from the anxiety” for “of fatigue”, “subjective pain-intensity” for “subjective intensity”
as §2, with “less pain” for “less”, “higher pain” for “higher”
as §4

[10] = negative = less intensity after treatment

CC(=O)N[C@@H](CS)C(=O)O [NAC, N-acetyl-L-cysteine]
number of patients that rated lower sporadic insomnia [1]: 15 patients
number of patients that rated unchanged intensity [1]: 9 patients
patients that rated lower sporadic insomnia [1]: 62%
patients that rated unchanged intensity [1]: 38%
relative position RP [1, 10]: −0.37 (95% CI −0.49 to −0.25)
number of patients that rated increased level of fatigue [2]: 3 patients
number of patients that rated lower fatigue [2]: 9 patients
number of patients that rated unchanged intensity of fatigue [2]: 8 patients
patients that rated increased level of fatigue [2]: 15%
patients that rated lower fatigue [2]: 45%
patients that rated unchanged intensity of fatigue [2]: 40%
relative position RP [2, 10]: −0.26 (95% CI −0.49 to −0.03)
number of patients that rated higher pain intensity after treatment [3]: 5 patients
number of patients that rated lower pain intensity after treatment [3]: 9 patients
patients that rated higher pain intensity after treatment [3]: 25%
patients that rated lower pain intensity after treatment [3]: 40%
patients that rated unchanged level [3]: 35%
oxidative response (slope of DCFDA fluorescence intensity increase) after menadione (K562 cells): relevant reduction in the kinetics of this intensity increase
oxidative response (slope of DCFDA fluorescence intensity increase) after menadione (HL60 cells): relevant reduction in the kinetics of this intensity increase
number of patients that rated higher [4]: 1 patients
number of patients that rated lower [4]: 4 patients
number of patients that rated unchanged level [4]: 2 patients
relative position RP [4]: RP −0.27
number of patients that rated lower [5]: 9 patients
number of patients that rated unchanged level [5]: 2 patients
relative position RP [5]: RP −0.46
number of patients that rated lower [6]: 3 patients
number of patients that rated unchanged level [6]: 4 patients
relative position RP [6]: RP −0.35
number of patients that rated lower [7]: ↓3, ~3 patients
number of patients that rated unchanged level [7]: ↓3, ~3 patients
relative position RP [7]: RP −0.31
number of patients that rated lower [8]: 3 patients
number of patients that rated unchanged level [8]: 2 patients
relative position RP [8]: RP −0.60
number of patients that rated lower [9]: 7 patients
number of patients that rated unchanged level [9]: 1 patients
relative position RP [9]: RP −0.81

C[Se]CC[C@H](N)C(=O)O [SeMet, selenomethionine]
oxidative response (slope of DCFDA fluorescence intensity increase) after menadione (HL60 cells): unfavorable pro-oxidant effect

COc1ccc2[nH]cc(CCNC(C)=O)c2c1 [Mel, melatonin]
oxidative response (slope of DCFDA fluorescence intensity increase) after menadione (HL60 cells): unfavorable pro-oxidant effect
